From US11666558B2, “Methods of treating intraocular pressure with activators of Tie-2” (EyePoint Pharmaceuticals, Inc., priority 2015, dated 2023)
Where a name gives a salt, the structure may show the parent alone. Read-outs that look alike come from different tables or passages of the source.

Assay: Ocular tissue concentrations (aqueous humor, vitreous humor, iris, retina, choroid, cornea) after topical ocular, subcutaneous and intravitreal administration
Assay type: in vivo, New Zealand White rabbits
Conditions: for concentration at 4 h / concentration at 0.5 h / concentration at 1 hr / concentration at 2 hr / concentration at 4 hr / concentration at 0.5 hr / concentration at 2 h / concentration at 1 h / concentration at 6 hr / concentration at 24 h / concentration at 48 h / concentration at 72 h: New Zealand White, rabbit; for concentration at 6 hr / concentration at 24 h / concentration at 48 h / concentration at 72 h: other: intravitreal, 2.5 mg per eye, Group 4 intravitreal 2.5 mg per eye
Procedure: To measure the concentration of Compound 1 in plasma and ocular tissues following topical ocular, subcutaneous, and intravitreal administration, New Zealand White rabbits were administered Compound 1, and plasma and ocular samples were collected at pre-determined time points. Compound 1 formulations were prepared fresh on each day of dosing.
Ocular tissue samples from both eyes of each animal were collected and weights were recorded. Plasma and ocular tissue sample concentrations of Compound 1 were determined by LC-MS/MS.
New Zealand White rabbits weighing 2.5 to 3.5 kg were used on this study. Rabbits were housed one per cage. Animals were not fasted and only healthy animals with no ocular illness were used. Two rabbits per group were sacrificed at each of four ocular tissue sampling time points for a total of eight rabbits per group.
Animals were anesthetized for ocular (topical) and intravitreal dosing following the 12IA7 IACUC protocol. Each rabbit received a bolus dose of test formulation either via topical ocular administration 3 times daily on Days 1 and 2 (at 0, 6, and 12 hours), and once on Day 3 (at 0 hours) into both eyes; via intravitreal administration into both eyes once on Day 1 (at 0 hours); or via subcutaneous administration 2 times daily on Days 1 and 2 (at 0 and 8 hours) and once daily on Day 3 (at 0 hours). Doses were given within an approximately 1 hour window each day where applicable.
On Day 1, for intravitreal administration, or on Day 3, for topical ocular and subcutaneous administration, at the appropriate ocular tissue collection time points, animals were euthanized and both eyes were enucleated immediately. Following enucleation, each eye was rinsed with phosphate-buffered saline. Ocular tissue samples from both eyes of each animal were collected at predetermined time points and weights were recorded. All the samples were frozen immediately on dry ice, and stored at −60° C. to −80° C. pending bioanalysis.
An LC-MS/MS method was developed for the determination of Compound 1 in rabbit aqueous tissues (plasma, aqueous and vitreous humor) and solid ocular tissue samples. A pre-study standard curve was analyzed to determine the specificity, range, and lower limit of quantitation of the method. Plasma and tissue homogenate study samples were extracted and analyzed. All the samples were treated identically to the standards.
One eight-point standard curve was used in each analytical batch. To be accepted, each batch must have had at least five of eight standards with accuracy within ±20% of nominal, except at the lower limit of quantification (LLOQ), where ±25% was acceptable.
Concentration versus time data is plotted in FIGS. 3-16. All data are expressed as ng/g of the free drug. Samples that were below the limit of quantitation (0.2 ng/mL) were not used in the calculation of averages.

[1] = vitreous humor, read-out: vitreous humor Average Conc.
[2] = vitreous humor, read-out: vitreous humor Conc., individual eyes (OD, OS)

Compound: COC(=O)N[C@@H](Cc1ccccc1)C(=O)N[C@@H](Cc1ccc(NS(=O)(=O)O)cc1)c1csc(-c2cccs2)n1 [Compound 1 sodium salt]
- concentration at 4 h (aqueous humor, topical, 1.2 mg/eye, Group 1 topical ocular 1.2 mg/eye, 4.0 hr, read-out: aqueous humor Average Conc.): 8.24 ng/g
- concentration at 0.5 h (choroid, topical, 1.2 mg/eye, topical ocular 1.2 mg/eye (~0.7 mg/kg/dose), read-out: Choroid tissue Average): 57.7 ng/g
- concentration at 1 hr (choroid, topical, 1.2 mg/eye, topical ocular 1.2 mg/eye (~0.7 mg/kg/dose), 1 hr, read-out: Choroid tissue Average): 32.2 ng/g
- concentration at 2 hr (choroid, topical, 1.2 mg/eye, topical ocular 1.2 mg/eye (~0.7 mg/kg/dose), 2 hr, read-out: Choroid tissue Average): 59.2 ng/g
- concentration at 4 hr (choroid, topical, 1.2 mg/eye, topical ocular 1.2 mg/eye (~0.7 mg/kg/dose), 4 hr, read-out: Choroid tissue Average): 165 ng/g
- concentration at 0.5 hr (cornea, topical, 1.2 mg/eye, topical ocular 1.2 mg/eye (~0.7 mg/kg/dose), read-out: Cornea tissue Average): 1020 ng/g
- concentration at 0.5 hr (cornea, topical, 1.2 mg/eye, topical ocular 1.2 mg/eye (~0.7 mg/kg/dose), read-out: Cornea tissue Conc., individual eyes (OD, OS)): 427 ng/g
- concentration at 1 hr (cornea, topical, 1.2 mg/eye, topical ocular 1.2 mg/eye (~0.7 mg/kg/dose), 1 hr, read-out: Cornea tissue Average): 548 ng/g
- concentration at 2 hr (cornea, topical, 1.2 mg/eye, topical ocular 1.2 mg/eye (~0.7 mg/kg/dose), 2 hr, read-out: Cornea tissue Average): 1070 ng/g
- concentration at 4 hr (cornea, topical, 1.2 mg/eye, topical ocular 1.2 mg/eye (~0.7 mg/kg/dose), 4 hr, read-out: Cornea tissue Average): 534 ng/g
- concentration at 0.5 hr (iris homogenate, topical, 1.2 mg/eye, topical ocular 1.2 mg/eye (~0.7 mg/kg/dose), read-out: Iris homogenate Conc., individual eyes (OD, OS)): 2.55 ng/mL
- concentration at 0.5 hr (iris, topical, 1.2 mg/eye, topical ocular 1.2 mg/eye (~0.7 mg/kg/dose), read-out: Iris tissue Average): 24.3 ng/g
- concentration at 0.5 hr (iris, topical, 1.2 mg/eye, topical ocular 1.2 mg/eye (~0.7 mg/kg/dose), read-out: Iris tissue Conc., individual eyes (OD, OS)): 17.8 ng/g
- concentration at 1 hr (iris, topical, 1.2 mg/eye, topical ocular 1.2 mg/eye (~0.7 mg/kg/dose), 1 hr, read-out: Iris tissue Average): 55.2 ng/g
- concentration at 2 h (iris, topical, 1.2 mg/eye, topical ocular 1.2 mg/eye (~0.7 mg/kg/dose), 2 hr, read-out: Iris tissue Average): 51.9 ng/g
- concentration at 4 h (iris, topical, 1.2 mg/eye, topical ocular 1.2 mg/eye (~0.7 mg/kg/dose), 4 hr, read-out: Iris tissue Average): 261 ng/g
- concentration at 4 h (iris, topical, 1.2 mg/eye, topical ocular 1.2 mg/eye (~0.7 mg/kg/dose), 4 hr, read-out: Iris tissue Conc., individual eyes (OD, OS)): 30.7 ng/g
- concentration at 0.5 h (retina, topical, 1.2 mg/eye, topical ocular 1.2 mg/eye (~0.7 mg/kg/dose), read-out: Retina tissue Average): 25.6 ng/g
- concentration at 1 h (retina, topical, 1.2 mg/eye, topical ocular 1.2 mg/eye (~0.7 mg/kg/dose), 1 hr, read-out: Retina tissue Average): 59.2 ng/g
- concentration at 2 h (retina, topical, 1.2 mg/eye, topical ocular 1.2 mg/eye (~0.7 mg/kg/dose), 2 hr, read-out: Retina tissue Average): 48.3 ng/g
- concentration at 4 h (retina, topical, 1.2 mg/eye, topical ocular 1.2 mg/eye (~0.7 mg/kg/dose), 4 hr, read-out: Retina tissue Average): 405 ng/g
- concentration at 6 hr [1]: 988000 ng/g
- concentration at 6 hr [2]: 592000 ng/mL
- concentration at 24 h [1]: 350000 ng/g
- concentration at 24 h [2]: 438000 ng/mL
- concentration at 48 h [1]: 82000 ng/g
- concentration at 48 h [2]: 85200 ng/mL
- concentration at 72 h [1]: 13400 ng/g
- concentration at 72 h [2]: 14500 ng/mL
- concentration at 0.5 hr (vitreous humor, subcutaneous, 5 mg/kg, Group 2 subcutaneous 5 mg/kg, read-out: vitreous humor Average Conc.): 0.83 ng/g
- concentration at 0.5 hr (vitreous humor, subcutaneous, 5 mg/kg, Group 2 subcutaneous 5 mg/kg, read-out: vitreous humor Conc., individual eyes (OD, OS)): 0.77 ng/mL
- concentration at 1 hr (vitreous humor, subcutaneous, 5 mg/kg, Group 2 subcutaneous 5 mg/kg, 1.0 hr, read-out: vitreous humor Average Conc.): 0.45 ng/g
- concentration at 0.5 h (vitreous humor, topical, 1.2 mg/eye, Group 1 topical ocular 1.2 mg/eye, read-out: vitreous humor Average Conc.): 0.61 ng/g
- concentration at 0.5 h (vitreous humor, topical, 1.2 mg/eye, Group 1 topical ocular 1.2 mg/eye, read-out: vitreous humor Conc., individual eyes (OD, OS)): 0.528 ng/mL
- concentration at 1 h (vitreous humor, topical, 1.2 mg/eye, Group 1 topical ocular 1.2 mg/eye, 1.0 hr, read-out: vitreous humor Average Conc.): 2.09 ng/g
- concentration at 2 hr (vitreous humor, topical, 1.2 mg/eye, Group 1 topical ocular 1.2 mg/eye, 2.0 hr, read-out: vitreous humor Average Conc.): 3.33 ng/g
- concentration at 2 hr (vitreous humor, topical, 1.2 mg/eye, Group 1 topical ocular 1.2 mg/eye, 2.0 hr, read-out: vitreous humor Conc., individual eyes (OD, OS)): 1.14 ng/mL
- concentration at 4 hr (vitreous humor, topical, 1.2 mg/eye, Group 1 topical ocular 1.2 mg/eye, 4.0 hr, read-out: vitreous humor Average Conc.): 4.01 ng/g
- aqueous humor concentrations (topical ocular administration, over four hours (FIG. 6)): below 50 ng/g
